# PubChem BioAssay (NCI)
#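 Briefly, cells in 96-well plates were exposed to five compound concentrations for 48 h, and endpoints were estimated by linear interpolation. Here, GI50 denotes the concentration required for 50% inhibition of growth. TGI denotes the concentration required for complete inhibition of growth.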
# Tests used:
# Experiment in all cases: NCI tumour cell line growth inhibition, 48 h
# [1] = test system: OVCAR-5 ovarian
# [2] = test system: MALME-3M melanoma
# [3] = test system: HOP-62 NSCLC
# [4] = test system: M14 melanoma
# [5] = test system: NCI/ADR-RES ovarian
# [6] = test system: HT29 colon
# [7] = test system: RXF 393 renal
# [8] = test system: SNB-19 CNS
# [9] = test system: SF-539 CNS
# [10] = test system: PC-3 prostate
# [11] = test system: K-562 leukemia
# [12] = test system: SK-MEL-2 melanoma
# [13] = test system: OVCAR-4 ovarian
# [14] = test system: HS 578T breast
# [15] = test system: 786-0 renal
# [16] = test system: NCI-H226 lung
# [17] = test system: SR leukemia
# [18] = test system: ACHN renal
# [19] = test system: KM12 colon
# [20] = test system: SF-295 CNS
# [21] = test system: HCT-15 colon
# [22] = test system: TK-10 renal
# [23] = test system: SK-MEL-5 melanoma
# [24] = test system: U251 CNS
# [25] = test system: COLO 205 colon
# [26] = test system: HOP-92 NSCLC
# [27] = test system: SN12C renal
# [28] = test system: DU-145 prostate
# [29] = test system: A549 NSCLC
# [30] = test system: OVCAR-3 ovarian
# [31] = test system: MCF7 breast
# [32] = test system: NCI-H460 lung
# [33] = test system: UACC-62 melanoma
# [34] = test system: RPMI-8226 leukemia
# [35] = test system: CCRF-CEM leukemia
# [36] = test system: IGROV1 ovarian
# [37] = test system: MOLT-4 leukemia
# [38] = test system: BT-549 breast
# [39] = test system: UACC-257 melanoma
# [40] = test system: HCT-116 colon
# [41] = test system: SK-MEL-28 melanoma
# [42] = test system: UO-31 renal
# [43] = test system: SK-OV-3 ovarian
# [44] = test system: A498 renal
# [45] = test system: SNB-75 CNS
# [46] = test system: NCI-H23 lung
# [47] = test system: SF-268 CNS
# [48] = test system: CAKI-1 renal
# [49] = test system: LOX IMVI melanoma
# [50] = test system: HL-60(TB) leukemia
# [51] = test system: MDA-MB-435
# [52] = test system: NCI-H522 lung
# [53] = test system: T-47D breast
# [54] = test system: OVCAR-8 ovarian
# [55] = test system: MDA-MB-231 breast
# [56] = test system: SW-620 colon
# [57] = test system: HCC-2998 colon
smiles,measurement,setting,value
C[C@H](O)CNc1cc(-c2[nH]c3cccnc3c2-c2ccc(F)cc2)ccn1,GI50,[1],> 25 µM
same,TGI,[1],> 25 µM
same,GI50,[2],> 14.4 µM
same,TGI,[2],> 25 µM
same,GI50,[3],20.1 µM
same,TGI,[3],> 25 µM
same,GI50,[4],> 25 µM
same,TGI,[4],> 25 µM
same,GI50,[5],> 25 µM
same,TGI,[5],> 25 µM
same,GI50,[6],10.1 µM
same,TGI,[6],> 25 µM
same,GI50,[7],14.6 µM
same,TGI,[7],> 25 µM
same,GI50,[8],18.5 µM
same,TGI,[8],> 25 µM
same,GI50,[9],> 25 µM
same,TGI,[9],> 25 µM
same,GI50,[10],> 23 µM
same,TGI,[10],> 25 µM
same,GI50,[11],> 23 µM
same,TGI,[11],> 25 µM
same,GI50,[12],> 25 µM
same,TGI,[12],> 25 µM
same,GI50,[13],> 25 µM
same,TGI,[13],> 25 µM
same,GI50,[14],15.8 µM
same,TGI,[14],> 25 µM
same,GI50,[15],16.2 µM
same,TGI,[15],> 25 µM
same,GI50,[16],12.9 µM
same,TGI,[16],> 25 µM
same,GI50,[17],13.3 µM
same,TGI,[17],> 25 µM
same,GI50,[18],4.66 µM
same,TGI,[18],> 25 µM
same,GI50,[19],22.1 µM
same,TGI,[19],> 25 µM
same,GI50,[20],> 12.4 µM
same,TGI,[20],> 25 µM
same,GI50,[21],10.3 µM
same,TGI,[21],> 25 µM
same,GI50,[22],10.3 µM
same,TGI,[22],> 25 µM
same,GI50,[23],10.3 µM
same,TGI,[23],> 25 µM
same,GI50,[24],> 18.5 µM
same,TGI,[24],> 25 µM
same,GI50,[25],13.5 µM
same,TGI,[25],> 25 µM
same,GI50,[26],1.59 µM
same,TGI,[26],> 22.9 µM
same,GI50,[27],11.9 µM
same,TGI,[27],> 25 µM
same,GI50,[28],18.7 µM
same,TGI,[28],> 25 µM
same,GI50,[29],13.4 µM
same,TGI,[29],> 25 µM
same,GI50,[30],22.2 µM
same,TGI,[30],> 25 µM
same,GI50,[31],6.37 µM
same,TGI,[31],> 25 µM
same,GI50,[32],8.43 µM
same,TGI,[32],> 25 µM
same,GI50,[33],12.3 µM
same,TGI,[33],> 25 µM
same,GI50,[34],> 17.1 µM
same,TGI,[34],> 25 µM
same,GI50,[35],20.1 µM
same,TGI,[35],> 25 µM
same,GI50,[36],6.35 µM
same,TGI,[36],> 21.8 µM
same,GI50,[37],> 25 µM
same,TGI,[37],> 25 µM
same,GI50,[38],17.8 µM
same,TGI,[38],> 25 µM
same,GI50,[39],> 25 µM
same,TGI,[39],> 25 µM
same,GI50,[40],13.2 µM
same,TGI,[40],> 25 µM
same,GI50,[41],> 25 µM
same,TGI,[41],> 25 µM
same,GI50,[42],4.08 µM
same,TGI,[42],> 25 µM
same,GI50,[43],13.1 µM
same,TGI,[43],> 25 µM
same,GI50,[44],4.19 µM
same,TGI,[44],> 25 µM
same,GI50,[45],11.8 µM
same,TGI,[45],> 25 µM
same,GI50,[46],> 25 µM
same,TGI,[46],> 25 µM
same,GI50,[47],17.3 µM
same,TGI,[47],> 25 µM
same,GI50,[48],9.06 µM
same,TGI,[48],> 25 µM
same,GI50,[49],12.5 µM
same,TGI,[49],> 25 µM
same,GI50,[50],> 25 µM
same,TGI,[50],> 25 µM
same,GI50,[51],> 23 µM
same,TGI,[51],> 25 µM
same,GI50,[52],> 25 µM
same,TGI,[52],> 25 µM
same,GI50,[53],8.88 µM
same,TGI,[53],> 25 µM
same,GI50,[54],> 20.2 µM
same,TGI,[54],> 25 µM
same,GI50,[55],24.1 µM
same,TGI,[55],> 25 µM
same,GI50,[56],> 25 µM
same,TGI,[56],> 25 µM
same,GI50,[57],> 23.3 µM
same,TGI,[57],> 25 µM
